Measured values taken from ChEMBL document CHEMBL1122528, “Synthesis and evaluation of furan, thiophene, and azole bis[(carbamoyloxy)methyl] derivatives as potential antineoplastic agents” (J Med Chem, 1984).
The source made the active and inactive calls. The calls are words filed in the database; no cut-off is given here.

system: P388; experiment: Compound was tested for antileukemic activity against murine P388 lymphocytic leukemia; Inactive; format: functional, cell-based; conditions: Mus musculus

Compound | Activity
CNC(=O)OCc1c(C)sc(-c2ccccc2)c1COC(=O)NC | inactive
CNC(=O)OCc1c(COC(=O)NC)c(C)n(-c2ccccc2)c1C | inactive
CNC(=O)OCc1c(COC(=O)NC)c(-c2ccc(C)cc2)n(C)c1C | inactive
CNC(=O)OCc1nc(-c2ccccc2)oc1COC(=O)NC | inactive
CNC(=O)OCc1snc(-c2ccccc2)c1COC(=O)NC | inactive
CNC(=O)OCc1cn(-c2ccc(Cl)c(Cl)c2)nc1COC(=O)NC | inactive
CNC(=O)OCc1onc(-c2ccccc2)c1COC(=O)NC | inactive
CNC(=O)OCc1nc(-c2ccccc2)sc1COC(=O)NC | inactive
CNC(=O)OCc1nnn(-c2ccccc2)c1COC(=O)NC | inactive
